Holding throughout (assay type): cell-based
The target of one test is T1, human GLP-1R (Homo sapiens, UniProt P43220).
T1 construct: expressed in transfected cells; host or cells: CHO-K1, plasmids hGLP-1/pIRESneo3 and Cre-luc(Zeo)
The experiment in a line: Agonist activity against human GLP-1R, CRE-luciferase reporter assay in hGLP-1R/CRE-luc/CHO-K1 cells. On the technique in general: Reporter assays use an easily measured gene product as a stand-in for the process of interest.

For a further test, the target named is T2, human GIPR (Homo sapiens, UniProt P48546).
T2 construct: expressed in transfected cells; host or cells: CHO-K1 (CRE-LUC/CHO-K1), plasmid hGIPR/pMSRα-neo
T2 sequence (P48546 22-466): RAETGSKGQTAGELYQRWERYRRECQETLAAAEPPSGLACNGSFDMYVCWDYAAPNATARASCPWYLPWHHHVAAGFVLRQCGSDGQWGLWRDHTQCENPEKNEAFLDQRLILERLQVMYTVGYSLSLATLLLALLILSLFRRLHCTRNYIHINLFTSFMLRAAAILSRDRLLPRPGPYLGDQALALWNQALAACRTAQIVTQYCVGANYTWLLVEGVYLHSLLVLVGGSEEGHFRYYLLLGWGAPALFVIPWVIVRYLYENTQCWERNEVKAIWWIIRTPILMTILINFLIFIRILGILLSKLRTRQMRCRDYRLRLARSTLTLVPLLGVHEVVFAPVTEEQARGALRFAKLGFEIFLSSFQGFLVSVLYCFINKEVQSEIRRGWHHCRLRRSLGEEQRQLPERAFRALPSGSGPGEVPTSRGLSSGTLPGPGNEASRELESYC
The experiment in a line: Agonist activity against human GIPR, CRE-luciferase reporter assay (rise in intracellular cAMP) in hGIPR/CRE-LUC/CHO-K1 cells.

In a further test the target is T3, human glucagon R (Homo sapiens, UniProt P47871).
T3 construct: expressed in transfected cells; host or cells: CHO-K1 (CRE-LUC/CHO-K1), plasmid hGlucagonR/pMSRα-neo
The experiment in a line: Agonist activity against human glucagon R, CRE-luciferase reporter assay in hGlucagonR/CRE-LUC/CHO-K1 cells.

Where [1] appears, read: hGLP-1R/CRE-luc/CHO-K1 cells, 4 hours incubation, 10 nM GLP-1 = 100%, read-out: Agonist activity (EC50) hGLP-1R.
Setting [2] is: hGIPR/CRE-LUC/CHO-K1 cells, 4 hours incubation, 10 nM GIP = 100%, read-out: Agonist activity (EC50) hGIPR.
The mark [3] stands for this setting: hGlucagonR/CRE-LUC/CHO-K1 cells, 4 hours incubation, 10 nM glucagon = 100%, read-out: Agonist activity (EC50) hGCGR.

Where two headings read alike, the source gives them in different places. Square brackets hold non-standard residues; d marks the D form. Peptide text beside a SMILES is read from it. * marks the point of attachment. Tyr(Nα-amidino) = N=C(N)N[C@@H](Cc1ccc(O)cc1)C(=O)*; Cyclopropanecarbonyl = O=C(C1CC1)*; αMeF = C[C@](N)(Cc1ccccc1)C(=O)O; Aib = CC(C)(N)C(=O)O; Bz = O=C(c1ccccc1)*

T3 sequence (P47871 26-477): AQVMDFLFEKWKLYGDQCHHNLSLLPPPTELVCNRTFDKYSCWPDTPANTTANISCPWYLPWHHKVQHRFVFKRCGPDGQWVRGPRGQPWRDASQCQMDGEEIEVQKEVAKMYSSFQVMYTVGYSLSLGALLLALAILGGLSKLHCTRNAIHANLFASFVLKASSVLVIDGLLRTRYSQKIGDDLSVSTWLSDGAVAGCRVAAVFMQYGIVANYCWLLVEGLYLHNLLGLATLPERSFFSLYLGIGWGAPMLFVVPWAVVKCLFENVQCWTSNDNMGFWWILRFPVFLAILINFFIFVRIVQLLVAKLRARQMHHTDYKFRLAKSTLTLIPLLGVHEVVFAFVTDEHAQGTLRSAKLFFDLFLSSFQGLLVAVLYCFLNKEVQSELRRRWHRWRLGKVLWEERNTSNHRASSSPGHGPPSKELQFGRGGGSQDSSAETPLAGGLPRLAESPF
T1 sequence (P43220 24-463): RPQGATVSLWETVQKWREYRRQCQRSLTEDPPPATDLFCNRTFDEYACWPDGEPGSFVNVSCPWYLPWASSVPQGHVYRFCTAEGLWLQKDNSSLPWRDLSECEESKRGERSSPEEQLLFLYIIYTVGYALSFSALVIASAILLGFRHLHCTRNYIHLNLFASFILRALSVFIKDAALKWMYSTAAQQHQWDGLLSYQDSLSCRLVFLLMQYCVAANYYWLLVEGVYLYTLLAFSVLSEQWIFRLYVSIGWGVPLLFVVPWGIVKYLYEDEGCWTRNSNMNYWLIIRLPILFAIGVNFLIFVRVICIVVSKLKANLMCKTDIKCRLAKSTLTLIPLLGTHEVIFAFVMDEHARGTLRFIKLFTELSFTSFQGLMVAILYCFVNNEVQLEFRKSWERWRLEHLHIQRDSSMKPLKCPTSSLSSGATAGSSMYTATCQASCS

On to `CC[C@H](C)[C@H](NC(=O)C(C)(C)NC(=O)[C@H](Cc1ccc(O)cc1)NC(=O)[C@H](CC(=O)O)NC(=O)[C@H](CO)NC(=O)[C@@H](NC(=O)[C@](C)(Cc1ccccc1)NC(=O)[C@@H](NC(=O)CNC(=O)[C@H](CCC(=O)O)NC(=O)C(C)(C)NC(=O)[C@H](Cc1ccc(O)cc1)NC(=O)C1CC1)[C@@H](C)O)[C@@H](C)O)C(=O)NC(C)(C)C(=O)N[C@@H](CC(C)C)C(=O)N[C@@H](CC(=O)O)C(=O)N[C@@H](CCCCN)C(=O)N[C@@H](CCC(N)=O)C(=O)N[C@@H](C)C(=O)N[C@@H](CCC(N)=O)C(=O)N[C@@H](C)C(=O)N[C@@H](CCC(=O)O)C(=O)N[C@@H](Cc1ccccc1)C(=O)N[C@H](C(=O)N[C@@H](CCCCN)C(=O)N[C@@H](Cc1c[nH]c2ccccc12)C(=O)N[C@@H](CC(C)C)C(=O)N[C@@H](CC(C)C)C(=O)N[C@@H](CCCCN)C(=O)NCC(=O)NCC(=O)N1CCC[C@H]1C(=O)N[C@@H](CO)C(=O)N[C@@H](CO)C(=O)NCC(=O)N[C@@H](C)C(=O)N1CCC[C@H]1C(=O)N1CCC[C@H]1C(=O)N1CCC[C@H]1C(=O)N[C@@H](CO)C(=O)N[C@@H](CCCCN)C(N)=O)C(C)C` [Example 21] (Cyclopropanecarbonyl-Y[Aib]EGT[αMeF]TSDY[Aib]I[Aib]LDKQAQAEFVKWLLKGGPSSGAPPPSK-NH2), for which the concentration giving a half-maximal response (EC50) is 0.055 nM at human GLP-1R (setting [1]), 0.024 nM at human GIPR (setting [2]) and greater than 1000 nM on human glucagon R (setting [3]).

In the case of `CC[C@H](C)[C@H](NC(=O)[C@H](C)NC(=O)[C@H](Cc1ccc(O)cc1)NC(=O)[C@H](CC(=O)O)NC(=O)[C@H](CO)NC(=O)[C@@H](NC(=O)[C@](C)(Cc1ccccc1)NC(=O)[C@@H](NC(=O)CNC(=O)[C@H](CCC(=O)O)NC(=O)C(C)(C)NC(=O)[C@@H](N)Cc1ccc(O)cc1)[C@@H](C)O)[C@@H](C)O)C(=O)NC(C)(C)C(=O)N[C@@H](CC(C)C)C(=O)N[C@@H](CC(=O)O)C(=O)N[C@@H](CCCCN)C(=O)N[C@@H](CCC(N)=O)C(=O)N[C@@H](C)C(=O)N[C@@H](CCC(N)=O)C(=O)N[C@@H](CO)C(=O)N[C@@H](CCC(=O)O)C(=O)N[C@@H](Cc1ccccc1)C(=O)N[C@H](C(=O)N[C@@H](CCCCN)C(=O)N[C@@H](Cc1c[nH]c2ccccc12)C(=O)N[C@@H](CC(C)C)C(=O)N[C@@H](CC(C)C)C(=O)N[C@@H](CCCCN)C(=O)NCC(=O)NCC(=O)N1CCC[C@H]1C(=O)N[C@@H](CO)C(=O)N[C@@H](CO)C(=O)NCC(=O)N[C@@H](C)C(=O)N1CCC[C@H]1C(=O)N1CCC[C@H]1C(=O)N1CCC[C@H]1C(=O)N[C@@H](CO)C(N)=O)C(C)C` [Example 7] (H-Y[Aib]EGT[αMeF]TSDYAI[Aib]LDKQAQSEFVKWLLKGGPSSGAPPPS-NH2), the EC50 was 0.0088 nM on human GLP-1R (setting [1]), 0.0069 nM on human GIPR (setting [2]) and greater than 1000 nM on human glucagon R (setting [3]).

With `CC[C@H](C)[C@H](NC(=O)C(C)(C)NC(=O)[C@H](Cc1ccc(O)cc1)NC(=O)[C@H](CC(=O)O)NC(=O)[C@H](CO)NC(=O)[C@@H](NC(=O)[C@](C)(Cc1ccccc1)NC(=O)[C@@H](NC(=O)CNC(=O)[C@H](CCC(=O)O)NC(=O)C(C)(C)NC(=O)[C@H](Cc1ccc(O)cc1)NC(=N)N)[C@@H](C)O)[C@@H](C)O)C(=O)NC(C)(C)C(=O)N[C@@H](CC(C)C)C(=O)N[C@@H](CC(=O)O)C(=O)N[C@@H](CCCCN)C(=O)N[C@@H](CCC(N)=O)C(=O)N[C@@H](C)C(=O)N[C@@H](CCC(N)=O)C(=O)N[C@@H](C)C(=O)N[C@@H](CCC(=O)O)C(=O)N[C@@H](Cc1ccccc1)C(=O)N[C@H](C(=O)N[C@@H](CCCCN)C(=O)N[C@@H](Cc1c[nH]c2ccccc12)C(=O)N[C@@H](CC(C)C)C(=O)N[C@@H](CC(C)C)C(=O)N[C@@H](CCCCN)C(=O)NCC(=O)NCC(=O)N1CCC[C@H]1C(=O)N[C@@H](CO)C(=O)N[C@@H](CO)C(=O)NCC(=O)N[C@@H](C)C(=O)N1CCC[C@H]1C(=O)N1CCC[C@H]1C(=O)N1CCC[C@H]1C(=O)N[C@@H](CO)C(=O)N[C@@H](CCCCN)C(N)=O)C(C)C` [Example 22] ({Tyr(Nα-amidino)}-[Aib]EGT[αMeF]TSDY[Aib]I[Aib]LDKQAQAEFVKWLLKGGPSSGAPPPSK-NH2), the 50% effective concentration (EC50) at human GLP-1R is 0.035 nM; at human GIPR, 0.019 nM; on human glucagon R, greater than 1000 nM.

For the compound `CC[C@H](C)[C@H](NC(=O)C(C)(C)NC(=O)[C@H](Cc1ccc(O)cc1)NC(=O)[C@H](CC(=O)O)NC(=O)[C@H](CO)NC(=O)[C@@H](NC(=O)[C@](C)(Cc1ccccc1)NC(=O)[C@@H](NC(=O)CNC(=O)[C@H](CCC(=O)O)NC(=O)C(C)(C)NC(=O)[C@H](Cc1ccc(O)cc1)NC(=O)c1ccccc1)[C@@H](C)O)[C@@H](C)O)C(=O)NC(C)(C)C(=O)N[C@@H](CC(C)C)C(=O)N[C@@H](CC(=O)O)C(=O)N[C@@H](CCCCN)C(=O)N[C@@H](CCC(N)=O)C(=O)N[C@@H](C)C(=O)N[C@@H](CCC(N)=O)C(=O)N[C@@H](C)C(=O)N[C@@H](CCC(=O)O)C(=O)N[C@@H](Cc1ccccc1)C(=O)N[C@H](C(=O)N[C@@H](CCCCN)C(=O)N[C@@H](Cc1c[nH]c2ccccc12)C(=O)N[C@@H](CC(C)C)C(=O)N[C@@H](CC(C)C)C(=O)N[C@@H](CCCCN)C(=O)NCC(=O)NCC(=O)N1CCC[C@H]1C(=O)N[C@@H](CO)C(=O)N[C@@H](CO)C(=O)NCC(=O)N[C@@H](C)C(=O)N1CCC[C@H]1C(=O)N1CCC[C@H]1C(=O)N1CCC[C@H]1C(=O)N[C@@H](CO)C(=O)N[C@@H](CCCCN)C(N)=O)C(C)C` [Example 19] (Bz-Y[Aib]EGT[αMeF]TSDY[Aib]I[Aib]LDKQAQAEFVKWLLKGGPSSGAPPPSK-NH2), the EC50 at human GLP-1R is 0.037 nM; on human GIPR it was 0.024 nM; at human glucagon R, greater than 1000 nM.

For `CC[C@H](C)[C@H](NC(=O)C(C)(C)NC(=O)[C@H](Cc1ccc(O)cc1)NC(=O)[C@H](CC(=O)O)NC(=O)[C@H](CO)NC(=O)[C@@H](NC(=O)[C@](C)(Cc1ccccc1)NC(=O)[C@@H](NC(=O)CNC(=O)[C@H](CCC(=O)O)NC(=O)C(C)(C)NC(=O)[C@@H](N)Cc1ccc(O)cc1)[C@@H](C)O)[C@@H](C)O)C(=O)NC(C)(C)C(=O)N[C@@H](CC(C)C)C(=O)N[C@@H](CC(=O)O)C(=O)N[C@@H](CCCCN)C(=O)N[C@@H](CCC(N)=O)C(=O)N[C@@H](C)C(=O)N[C@@H](CCC(N)=O)C(=O)N[C@@H](CO)C(=O)N[C@@H](CCC(=O)O)C(=O)N[C@@H](Cc1ccccc1)C(=O)N[C@H](C(=O)N[C@@H](CCCCN)C(=O)N[C@@H](Cc1c[nH]c2ccccc12)C(=O)N[C@@H](CC(C)C)C(=O)N[C@@H](CC(C)C)C(=O)N[C@@H](CCCCN)C(=O)NCC(=O)NCC(=O)N1CCC[C@H]1C(=O)N[C@@H](CO)C(=O)N[C@@H](CO)C(=O)NCC(=O)N[C@@H](C)C(=O)N1CCC[C@H]1C(=O)N1CCC[C@H]1C(=O)N1CCC[C@H]1C(=O)N[C@@H](CO)C(=O)N[C@@H](CCCCN)C(N)=O)C(C)C` [Example 4] (H-Y[Aib]EGT[αMeF]TSDY[Aib]I[Aib]LDKQAQSEFVKWLLKGGPSSGAPPPSK-NH2), the EC50 at human GLP-1R was 0.0099 nM; at human GIPR, 0.0049 nM; on human glucagon R, greater than 1000 nM.

The EC50 is the concentration at which the effect is half-maximal.

(Values after US9200051B2, “Peptide compound” (TAKEDA PHARMACEUTICAL COMPANY LIMITED, priority 2013, dated 2015).)
